Measured values reported in patent US12344623B2, “Thiazolopyridine derivatives as adenosine receptor antagonists” (Merck Patent GmbH, priority 2019, dated 2025).

Key:
human A3 receptor = biological target: T1, human A3 receptor (Homo sapiens, UniProt P0DMS8); assay: Functional A3 receptor activity, recombinant CHO cells, cAMP (HTRF), forskolin, agonist IB-MECA; type: cell-based; details: recombinant CHO cells, forskolin, agonist IB-MECA; read-out: Functional A3 receptor activity, CHO, cAMP, IC50
T1 construct: expressed in transfected cells; host or cells: CHO
T1 sequence (P0DMS8 1-318): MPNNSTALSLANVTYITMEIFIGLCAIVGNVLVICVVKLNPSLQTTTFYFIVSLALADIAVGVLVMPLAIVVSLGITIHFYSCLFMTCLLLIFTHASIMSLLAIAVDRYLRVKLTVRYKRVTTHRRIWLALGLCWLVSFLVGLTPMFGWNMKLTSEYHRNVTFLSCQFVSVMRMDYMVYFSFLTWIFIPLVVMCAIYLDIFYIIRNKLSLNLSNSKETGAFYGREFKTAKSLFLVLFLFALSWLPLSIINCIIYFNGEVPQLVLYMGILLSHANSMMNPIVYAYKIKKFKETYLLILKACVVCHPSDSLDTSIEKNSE
In short: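 Gi-coupled readout: CHO cells expressing human A1 or A3 receptor were treated with forskolin, test compound and agonist (CPA for A1, IB-MECA for A3) for 30 min; cellular cAMP was then measured by HTRF. Data were normalized to inhibitor and DMSO controls and curve-fitted.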

[1] = Pharmacokinetic properties in mouse after single intravenous and oral administration; type: in vivo
Description: The objective of the study was to obtain information on the pharmacokinetic properties of the compounds of the present invention in female Wistar rats/mice following single intravenous and oral administration.
Female Wistar rats/mice (n=6) received either a single intravenous (bolus) injection or an oral administration (by gavage) of the tested compound. Doses of 0.2 and 10 mg/kg (per compound) were given intravenously and per os, respectively, as a solution in DMSO (0.2%)/PEG 200 (40%)/water for iv administration and as a suspension in Methocel (0.5%)/Tween 20 (0.25%) in water for oral dosing. Consecutive blood samples were taken sub-lingually under isoflurane inhalation from 3 animals per route of administration after 0.1 (only iv), 0.25 (only po), 0.5, 1, 2, 4, 6 and 24 h and were further processed to obtain plasma. Also, urine and feces samples of 3 rats per route of administration were collected over the time interval from 0-24 h and were pooled for analysis.
The concentrations of the compounds in plasma, feces were quantified using an UPLC method with tandem mass spectrometric detection (LC-MS/MS) previously developed at the ‘Institute of Drug Metabolism and Pharmacokinetics’. The LCMS/MS system consisted of a Waters Acquity UPLC coupled to an AB Sciex mass spectrometer API 5500 Q-trap. The UPLC separation was carried out on a reversed phase column (HSS T3, […], 2.1×50 mm) using a mobile phase gradient with 0.1% formic acid and acetonitrile as eluents. The detection of the compounds was performed using multiple reaction monitoring in the positive ionization mode. Plasma samples were spiked with internal standard (20 μl) and the analyte was extracted from the matrix using tertiary-butyl methyl ether (tBME). The organic phase was evaporated to dryness under a stream of nitrogen. The residue was dissolved in acetonitrile/0.1% formic acid for LC-MS/MS analysis. Feces samples were homogenized with 4-times their volume of an ethanol/water mixture (4:1, v/v). Aliquots of the aqueous-ethanolic extracts were spiked with internal standard, diluted with acetonitrile/water (1:1, v/v) and directly injected into the LC-MS/MS system.
Pharmacokinetic parameters Cmax and tmax were taken from the observed data. […] AUC values were calculated by non-compartmental analysis using the linear up/log down method. Numerical data for mean plasma concentrations and derived pharmacokinetic parameters were rounded to 3 significant digits for presentation.

human A2A receptor = human A2A receptor (Homo sapiens, UniProt P29274); assay: Human T cells, endogenous A2A receptor, cAMP, agonist NECA; type: cell-based; details: read-out: hTcell data, cAMP, IC50
Sequence of human A2A receptor (P29274 whole entry): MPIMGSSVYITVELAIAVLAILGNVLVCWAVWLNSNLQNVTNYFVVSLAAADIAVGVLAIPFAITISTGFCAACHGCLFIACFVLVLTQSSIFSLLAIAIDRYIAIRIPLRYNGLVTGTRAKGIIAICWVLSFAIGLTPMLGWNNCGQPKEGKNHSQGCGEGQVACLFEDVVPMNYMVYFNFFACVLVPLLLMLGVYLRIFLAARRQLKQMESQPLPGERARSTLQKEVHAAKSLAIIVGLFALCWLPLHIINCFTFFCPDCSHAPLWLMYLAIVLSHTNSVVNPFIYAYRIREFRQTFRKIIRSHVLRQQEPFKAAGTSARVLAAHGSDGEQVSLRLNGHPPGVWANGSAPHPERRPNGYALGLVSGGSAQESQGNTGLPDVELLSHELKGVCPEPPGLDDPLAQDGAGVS
In short: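 Pan T cells isolated from fresh human blood PBMC, endogenously expressing Gs-coupled A2A, treated with compounds. Cellular cAMP measured by HTRF after 1 h; data normalized to inhibitor control and DMSO neutral control, then curve-fitted.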

human T cells = assay: hTcell data, IL-2 (human T cells, IL-2 readout; method not given); type: cell-based; details: compounds of the present invention
mouse Pan T cells = assay: mTcell assay, IL-2, rescue of cytokine secretion, agonist NECA; type: cell-based; details: mouse Pan T cells, CD3/CD28 activated, NECA 1 μM, IL-2 rescue, 24 h
From the text: Adenosine (Ado) in tumor microenvironment can inhibit T cell activity by signaling through A2A receptors and suppress cytokine secretion by T cells. […] Potential A2A antagonists or A2A/A2B dual antagonists can rescue T cells from this inhibition. Herein, we describe the in vitro system we established using Pan T cells from mouse spleens to screen potential A2A antagonists or A2A/A2B dual antagonists for their activity. The method described involves the use of CD3/CD28 pre-coated beads to stimulate Pan T cells purified from mouse splenocytes, combined with the addition of A2A agonist along with potential A2A or A2A/A2B dual antagonists to evaluate potentiation of T cell cytokine production.
Briefly, mouse Pan T cells are purified from spleens of BALB/c mice using Pan T cell isolation kit Mouse II (MACS Miltenyi biotech Cat # Order no. 130-095-130) according to manufacturer's protocol. The purified T cells are seeded in Nunc™ 96-Well Polystyrene Round Bottom Microwell Plates in RPMI medium with 10% heat inactivated fetal bovine serum. The cells are rested at 37° C. for 1 h before activating with CD3/CD28 pre-coated beads (Dynabeads™ Mouse T-Activator CD3/CD28; Cat #11456D). After 30 min the cells are treated with varying doses of test antagonist(s). […] After 24 h incubation IL-2 levels in the supernatants are measured by ELISAs according to manufacturer's protocol (R&D systems Cat #DY402 (IL-2)). Once the concentrations are calculated, the difference of cytokine concentration of DMSO control and agonist alone control is calculated and the percentage of rescue by each concentration of antagonist is calculated by using Microsoft Excel. These percentages of cytokine rescue in a dose dependent manner of antagonist is plotted in GraphPad Prism software and IC50 is calculated.

- IC50 (human A3 receptor): > 1000 nM
- Feces iv ([1]; @0.2 (mg/kg), % of dose excreted in feces): 22@0.2%
- clearance ([1]; female, plasma, 0.2 mg/kg): 77.5 mL/min/kg
- Cmax ([1]; female, plasma, 0.2 mg/kg, dose-normalized to 1 mg/kg): 500 ng/mL
- Vd ([1]; female, plasma, 0.2 mg/kg, read-out: Vss): 3.16 L/kg
- half-life ([1]; female, plasma, 0.2 mg/kg, read-out: t½ (converted)): 54.6 min
- IC50 (human A2A receptor): < 10 nM
- IC50 (human T cells): < 10 nM
- IC50 (mouse Pan T cells): < 10 nM
Compound: COc1ncc(C2=CCOCC2)c2sc(NC(=O)N3CC[C@@]4(CCCOC4)C3)nc12 [Compound 25, (S)-7-Oxa-2-aza-spiro[4.5]decane-2-carboxylic acid [7-(3,6-dihydro-2H-pyran-4-yl)-4-methoxy-thiazolo[4,5-c]pyridin-2-yl]-amide]
